According to patent US20260159474A1, “Aminoindane Compounds and Compositions and Methods of Their Therapeutic Use” (Solvonis Therapeutics Ireland Holdings Limited, priority 2021, published 2026):
Where two headings read alike, the source gives them in different places.

Columns and labels:
Experiment in all cases: CYP450 inhibition, fluorescent probe substrate
Format in all cases: in vitro ADME
CYP1A2 = target: T1, CYP1A2 (Homo sapiens, UniProt P05177)
T1 construct: host or cells: recombinant microsomes
T1 sequence (P05177 1-516): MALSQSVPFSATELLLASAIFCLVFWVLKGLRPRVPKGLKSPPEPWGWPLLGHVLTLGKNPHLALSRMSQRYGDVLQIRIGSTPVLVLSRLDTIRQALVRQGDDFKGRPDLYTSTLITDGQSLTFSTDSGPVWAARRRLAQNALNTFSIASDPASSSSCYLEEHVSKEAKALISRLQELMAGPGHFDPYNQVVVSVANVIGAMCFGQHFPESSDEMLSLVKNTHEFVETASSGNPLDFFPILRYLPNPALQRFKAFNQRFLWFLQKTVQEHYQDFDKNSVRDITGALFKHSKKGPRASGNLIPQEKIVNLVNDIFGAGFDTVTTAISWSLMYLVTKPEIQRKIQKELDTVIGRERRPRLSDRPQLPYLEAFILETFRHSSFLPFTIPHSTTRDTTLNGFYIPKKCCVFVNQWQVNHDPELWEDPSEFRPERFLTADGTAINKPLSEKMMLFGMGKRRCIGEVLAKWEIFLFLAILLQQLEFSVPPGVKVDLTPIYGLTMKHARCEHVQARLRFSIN
Procedure: (§1) Methods: Recombinant human CYP450 isoenzymes were used to metabolize pro-fluorescent probe substrates to fluorescent products. IC50 values determined from the effect of test compounds on the metabolism of these probe substrates were then used to determine inhibitory potency against CYP450 isoforms. The chemical reagents included:
(§2) The test system was based on a three-step procedure with a “mix and read” format, where reaction and reading were performed at 37° C. The assays described herein measure in vitro inhibitory effects (pIC50) of compounds on the human P450 isoforms (1A2, 2B6, 2C8, 2C9, 2C19, 2D6, 3A4) expressed in recombinant microsomes. Pro-fluorescent probe substrates were metabolized to fluorescent products by the enzymes. Fluorescence was measured in kinetic mode (1 read/minutes for 10 minutes), and the fluorescence rate was calculated.
(§3) Inhibition of the fluorescent signal resulting from P450 activation indicated inhibitory activity and facilitated calculation of the compound pIC50. A quality check was included in each compound plate, wherein the signal window was monitored by performing Z′ calculations ([…] ) and the antagonist potency of internal standards was within the pIC50±2SD range. Concentration response curves (CRCs) of compounds were run on two different test occasions (n 2) by preparing serial dilutions from the same compound stock solution.
(§4) To prepare the compound plate, test compounds serial dilutions 1 to 3 were performed from a 10 mM stock solution in DMSO by Biomek FX to generate 10 point CRC with the highest concentrations in columns 3 and 13.
(§5) 100% DMSO was placed in columns 1 and 2 and used for assay low controls. CYP inhibitor (10 mM miconazole solution in DMSO) was placed in columns 23 and 24 and served as an assay high controls. 1 μL copy plates were then stamped into V-bottom drug plates at a concentration that is 200 fold the final assay concentration. The copy plates were diluted prior to the experiment with assay buffer to reach 4 times the final assay concentration (2% w/v DMSO).
(§6) A reference compound (e.g., miconazole) was included in each compound plate in row A, column 3 and 13. The reference compound was diluted and stamped together with test compounds. The final concentrations of the 10 point CRCs of test compounds in the assay plate were 5.00E-05; 1.67E-05; 5.56E-06; 1.85E-06; 6.17E-07; 2.06E-07; 6.86E-08; 2.29E-08; 7.62E-09 and 2.54E-09, respectively. All solutions were prepared immediately before the assay.
(§7) Microsomes were added to the buffer prior to the substrate addition. The solution was carefully mixed without vortexing. 30 μL/well of the mixture was then transferred to the assay plate (384-well black plate) using a 16-channel pipette. For each P450 isoformn, a separate plate was prepared and labeled with a barcode. For fluorescence measurement, 10 μL/well of the test compounds were transferred from the compound plate to the assay plate using Biomek FX and the appropriate protocol. The assay plate was then incubated at 37° C. for 10 minutes on a shaker to allow for the interaction between compounds and enzymes.
(§8) 10 μL/well of the cofactor was then added to the assay plate using the Multidrop before placing the assay plate in the plate reader EnVision to measure fluorescence. The overall final DMSO concentration for the assay was 0.5%. Plates were read every minute for 10 minutes, according to a P450 isoform specific protocol, as shown below.
(§9) Regarding data analysis, inhibition is expressed as a percentage. […] Curve fitting and pIC50 estimations are carried out using a four-parameter logistic model in Morphit.

CYP2C19 = target: T2, CYP2C19 (Homo sapiens, UniProt P33261)
T2 construct: host or cells: recombinant microsomes
Procedure: as §1, §2, §3, §4, §5, §6, §7, §8, §9

CYP2C9 = target: T3, CYP2C9 (Homo sapiens, UniProt P11712)
T3 construct: host or cells: recombinant microsomes
Procedure: as §1, §2, §3, §4, §5, §6, §7, §8, §9

CYP2D6 = target: T4, CYP2D6 (Homo sapiens, UniProt P10635)
T4 construct: host or cells: recombinant microsomes
Procedure: as §1, §2, §3, §4, §5, §6, §7, §8, §9

[1] = recombinant human isoenzyme, n=2, read-out: Inhibition of CYP1A2, IC50
[2] = recombinant human isoenzyme, n=2, read-out: Inhibition of CYP2C19, IC50
[3] = recombinant human isoenzyme, n=2, read-out: Inhibition of CYP2C9, IC50
[4] = recombinant human isoenzyme, n=2, read-out: Inhibition of CYP2D6, IC50
[5] = recombinant human isoenzyme, n=2

T4 sequence (P10635 whole entry): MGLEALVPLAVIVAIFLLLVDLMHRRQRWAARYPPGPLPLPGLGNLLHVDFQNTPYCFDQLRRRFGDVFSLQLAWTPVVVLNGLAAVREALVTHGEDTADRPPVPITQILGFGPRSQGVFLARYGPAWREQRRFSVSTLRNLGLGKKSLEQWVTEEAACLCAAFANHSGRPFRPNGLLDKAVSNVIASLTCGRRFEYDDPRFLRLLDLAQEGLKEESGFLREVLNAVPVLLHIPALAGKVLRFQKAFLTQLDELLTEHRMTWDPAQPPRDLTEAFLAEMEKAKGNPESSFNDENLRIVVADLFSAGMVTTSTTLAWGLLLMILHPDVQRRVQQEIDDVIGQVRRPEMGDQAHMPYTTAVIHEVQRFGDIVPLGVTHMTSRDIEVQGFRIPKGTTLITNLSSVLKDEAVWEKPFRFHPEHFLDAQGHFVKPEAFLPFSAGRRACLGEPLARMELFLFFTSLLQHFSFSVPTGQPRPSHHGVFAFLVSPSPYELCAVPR
T2 sequence (P33261 whole entry): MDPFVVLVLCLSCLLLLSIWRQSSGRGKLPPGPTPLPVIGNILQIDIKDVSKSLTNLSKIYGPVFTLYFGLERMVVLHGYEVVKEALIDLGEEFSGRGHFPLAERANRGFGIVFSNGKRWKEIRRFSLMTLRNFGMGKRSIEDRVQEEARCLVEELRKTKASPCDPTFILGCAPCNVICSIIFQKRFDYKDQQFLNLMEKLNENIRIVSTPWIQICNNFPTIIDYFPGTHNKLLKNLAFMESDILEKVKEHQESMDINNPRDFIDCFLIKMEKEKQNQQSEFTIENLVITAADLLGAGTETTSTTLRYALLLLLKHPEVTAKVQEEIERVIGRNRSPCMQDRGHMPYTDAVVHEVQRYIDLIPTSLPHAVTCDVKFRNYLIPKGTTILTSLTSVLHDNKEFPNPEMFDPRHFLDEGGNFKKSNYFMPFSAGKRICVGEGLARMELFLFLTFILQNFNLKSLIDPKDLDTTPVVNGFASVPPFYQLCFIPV
T3 sequence (P11712 whole entry): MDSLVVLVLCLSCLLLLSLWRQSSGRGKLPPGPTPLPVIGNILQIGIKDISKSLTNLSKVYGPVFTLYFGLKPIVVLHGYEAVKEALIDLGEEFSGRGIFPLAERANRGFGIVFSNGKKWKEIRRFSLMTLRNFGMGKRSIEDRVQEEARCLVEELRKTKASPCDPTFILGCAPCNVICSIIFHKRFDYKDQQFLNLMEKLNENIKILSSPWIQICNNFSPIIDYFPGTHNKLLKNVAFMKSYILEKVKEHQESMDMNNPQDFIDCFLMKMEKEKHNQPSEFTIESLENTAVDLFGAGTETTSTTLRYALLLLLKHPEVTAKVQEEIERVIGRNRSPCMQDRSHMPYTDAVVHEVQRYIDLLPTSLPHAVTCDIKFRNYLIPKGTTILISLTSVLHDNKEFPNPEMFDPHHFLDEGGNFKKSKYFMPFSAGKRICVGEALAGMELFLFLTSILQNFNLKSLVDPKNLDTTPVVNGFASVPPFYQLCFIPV

Structure (SMILES): CNC(C)Cc1ccc2c(c1)OCO2 (centres unmarked) [MDMA]
- IC50 (CYP1A2; [1]): > 50 µM
- IC50 (CYP2C19; [2]): > 50 µM
- IC50 (CYP2C9; [3]): > 50 µM
- IC50 (CYP2D6; [4]): 1.6 µM

Structure (SMILES): COC(=O)c1ccc2c(c1)CC(N)C2 (centres unmarked) [CMP-405, 2-aminoindane-5-methylcarboxylate]
- Inhibition of CYP1A2, IC50 (CYP1A2; [5]): displayed inhibitory activity at CYP1A2
- IC50 (CYP1A2; [1]): 0.61 µM
- IC50 (CYP2C19; [2]): > 50 µM
- IC50 (CYP2C9; [3]): > 50 µM
- IC50 (CYP2D6; [4]): 23 µM

Structure (SMILES): COc1ccc2c(c1)CC(N)C2 (centres unmarked) [MEAI, 5-methoxy-2-aminoindane]
- IC50 (CYP1A2): > 50 µM
- IC50 (CYP2C19): > 50 µM
- IC50 (CYP2C9): > 50 µM
- IC50 (CYP2D6): 37 µM

Structure (SMILES): COC(=O)c1cc2c(cc1OC)CC(N)C2 (centres unmarked) [CMP-401]
- Inhibition of CYP1A2, IC50 (CYP1A2; [5]): displayed inhibitory activity at CYP1A2
- IC50 (CYP1A2; [1]): 1.21 µM
- IC50 (CYP2C19; [2]): > 50 µM
- IC50 (CYP2C9; [3]): > 50 µM
- IC50 (CYP2D6; [4]): > 50 µM

Structure (SMILES): COC(=O)COc1ccc2c(c1)CC(N)C2 (centres unmarked) [CMP-402]
- Inhibition of CYP1A2, IC50 (CYP1A2; [5]): displayed inhibitory activity at CYP1A2
- IC50 (CYP1A2; [1]): 1.07 µM
- IC50 (CYP2C19; [2]): > 50 µM
- IC50 (CYP2C9; [3]): > 50 µM
- IC50 (CYP2D6; [4]): > 50 µM

Structure (SMILES): COc1cc2c(cc1C)CC(N)C2 (centres unmarked) [MMAI, 5-methoxy-6-methyl-2-aminoindane]
- IC50 (CYP1A2): 2.11 µM
- Inhibition of CYP1A2, IC50 (CYP1A2; [5]): displayed inhibitory activity at CYP1A2
- IC50 (CYP2C19): > 50 µM
- IC50 (CYP2C9): 35.7 µM
- Inhibition of CYP2C9, IC50 (CYP2C9; [5]): found to inhibit CYP2C9
- IC50 (CYP2D6): 33.6 µM
